Values of other authors, collected in US10292948B2 (Torrent Pharmaceuticals Limited, priority 2017, dated 2019).

How the values were obtained:
[1] = pH dependent

## CC[C@@H](c1cccc(O)c1)[C@@H](C)CN(C)C.Cl [Tapentadol, 3-[(1R,2R)-3-(dimethylamino)-1-ethyl-2-methylpropyl]phenol]
After oral dosing
  time of maximum serum concentration: around 1.25 hours
Oral administration
  administered tapentadol metabolized (first-pass metabolism): about 97%
  bioavailability: 32%
Oral formulations
  time after administration at which absorption occurs: at least 45 minutes
[1]
  solubility: highly soluble
